Laboratory results taken from publication PMC11255104 (Food Chemistry: X, 2024).

Test: Pharmacokinetic study in rats after oral administration of MOL extract
Assay type: in vivo, Sprague-Dawley rats
[1] = male, Sprague-Dawley, rat, plasma, po, 30 g/kg

half-life [1] [h]	Cmax [1] [ng/mL]	Tmax [1] [h]	time over which the substance could be detected in plasma (rat plasma, oral MOL extract 30 g/kg) [h]	SMILES
5.06	–	–	–	O=C(/C=C/c1ccc(O)c(O)c1)O[C@@H]1C[C@](O)(C(=O)O)C[C@@H](O)[C@H]1O [Chlorogenic acid]
–	643	0.24	≤ 12	O=c1c(O[C@@H]2O[C@H](CO)[C@@H](O)[C@H](O)[C@H]2O)c(-c2ccc(O)c(O)c2)oc2cc(O)cc(O)c12 [Isoquercitrin]
